Several values for one entry are separate records, joined by “and”; a condition that tells them apart may be missing. Identical values can stand only once. Entries after “also recorded” stand apart in the source; their conditions may differ. Like-named read-outs stand apart in the source and are kept apart here.
Columns and labels:
[1] = tested on: H9C2 cells; assay: cAMP accumulation in H9C2 cells; format: cell-based; conditions: 5 μM ISO, 3 minutes, 10 μM drug
From the text: […] Fludarabine ((+)-2-Fluoro-9-(5-O-phosphono-β-D-arabinofuranosyl)-9H-purin-6-amine) and Cladribine (2-chloro-2′-deoxyadenosine) are anti-cancer drugs, Adefovir (Bis(2,2-dimethylpropanoyloxymethyl)[2-(6-amino-9H-purin-9-yl)ethoxymethyl]phosphonate) and Zidovudine are anti-HIV drugs. Zidovudine-TP is a metabolite of zidovudine which inhibits virus replication. TP; triphosphate. 3-Deazaadenosine, Formycin A (7-Amino-3-(β-D-ribofuranosyl)-1H-pyrazolo[4,3-d]pyrimidine), 2-Far (2-Fluoroadenosine), formycin A ((2S,3R,4S,5R)-2-(7-amino-2H-pyrazolo[5,4-e]pyramidin-3-yl-5-(hydroxymeth-yl)oxolane-3,4-diol), 2-FD (2-Fluoro-2′-deoxyadenosine) and 2′5′ ddAdo (2′5′-dideoxyadenosine) are experimental drugs.
(§1) Mice were anesthetized with 2.5% tribromoethanol (0.010 to 0.015 mL per gram of body weight) injected intraperitoneally, and echocardiography was performed with ultrasonography (ACUSON Sequoia C256, Siemens Medical Solutions, Malvern, Pa.). For acute injection of isoproterenol, forskolin and milrinon, a PE-10 catheter was inserted into the right jugular vein, and drugs were injected at the rate of 1 μl/s. cAMP accumulation assay in H9C2 cells, a cardiac myoblast cell line, was examined as previously described.

[2] = biological target: type 5 AC (Homo sapiens, UniProt O95622); assay: Double-reciprocal plots of type 5 AC catalytic activity against ATP
Method: Hearts and striatum were dissected from the mice and membrane preparations were made as previously described. This crude membrane preparation was used in the AC assay. AC activity was measured by a modification of the method of Salomon et al. as previously described. […] Double-reciprocal plots were examined as previously described.

[3] = tested on: AC5; assay: AC inhibition, recombinant AC proteins: AC5; format: biochemical
[4] = tested on: cardiac myocytes; assay: ISO-induced apoptosis in cultured cardiac myocytes (DNA fragmentation ELISA); format: cell-based; conditions: 100 μM ISO, 48 h
Method: Cultured cardiac myocytes were incubated with 100 μM ISO in the presence or absence of AC5 inhibitors at the indicated concentrations for 48 h.

[5] = tested on: C57Bl/6 mice, chronic ISO infusion; assay: Chronic ISO infusion heart failure model; format: in vivo, mouse
From the text: ISO with or without AC5 inhibitors were chronically infused with osmotic mini-pump implanted subcutaneously at indicated doses for 1 week in c57Bl/6 mice. Mice were then subjected to echocardiography (a) and the hearts were removed and subjected to pathological examinations such as myocardial apoptosis (b) and fibrosis (c). n=4-8.
In C57Bl/6 mice, ISO with or without AC5 inhibitors or metoprolol were chronically infused with an osmotic mini-pump at the indicated doses for 1 week. Mice were then subjected to echocardiography (a) and heart tissue were subjected to a myocardial apoptosis assay (b). *, p<0.01 vs vehicle. #, p<0.05 vs vehicle. .dagger., p<0.01 vs ISO. .dagger-dbl., p<0.05 vs ISO. n=4-15. […] Comparisons between multiple groups were made using ANOVA with post-hoc tests.
Tenofovir diphosphate (PMPA-PP), zidovudine monophosphate (MP), zidovudine diphosphate (PP), zidovudine triphosphate (TP), famciclovir penciclovir and valaciclovir were purchased from Moravek. Formycin A (FMA) and Formycin B (FMB) were purchased from Berry and Associates. All other reagents were from Sigma unless specified. Long-term infusion of isoproterenol (Sigma, St. Louis, Mo.) was performed for 7 days at a dose of 60 mg/kg/d with or without AC5 inhibitors by using a miniosmotic pump (ALZET model 2001, DURECT Corp, Cupertino, Calif.). Control mice received vehicle in pumps. Pumps were removed 24 hours before biochemical and physiological studies. Experiments were performed in 3- to 5-month-old male C57Bl/6, and in AC5Tg transgenic mice. This study was approved by the Animal Care and Use Committee at New Jersey Medical School.
as §1

[6] = biological target: T1, AC5 (UniProt P30803); assay: AC inhibition, recombinant AC proteins: AC5; format: biochemical; conditions: read-out: IC50 for AC5
T1 construct: IC50 AC5; other: recombinant AC proteins; other: THFA: in the presence of Gs-α/GTPαS/forskolin

[7] = tested on: WT and AC5KO mice; assay: Heart rate and arterial pressure in conscious WT and AC5KO mice; format: in vivo, mouse; conditions: for decrease in HR in conscious AC5KO / decrease in HR in conscious WT: 0.01 μg/g (0.01 mg/kg) i.v.
From the text: In AC5KO and WT mice, four ECG wires (New England Electric Wire Corporation, Lisbon, N.H., USA) were placed subcutaneously, a silicone elastomer tubing (Cardiovascular Instrument Corp., Wakefield, Mass., USA) was inserted into the right external jugular vein and a 1.4 F micromanometer catheter (Millar Instruments, Inc., Houston, Tex., USA) was inserted into the lower abdominal aorta via the femoral artery as described previously with some modifications. The ECG wires, the silicone elastomer tubing and the micromanometer catheter were tunneled subcutaneously to the back, externalized, and secured in a plastic cap. On the day of the study, each mouse was placed in the mouse holder, the jugular venous catheter was accessed and connected to a microliter syringe (Hamilton Co., Reno, Nev., USA), the 1.4 F micromanometer catheter was connected to a recorder (Dash 4u; Astro-Med, Inc., West Warwick, R.I., USA) and the ECG wires were connected to an ECG amplifier (Gould Inc., Cleveland, Ohio, USA). All experiments were recorded with animals in the conscious state. After at least 6 hours recovery from the implantation of the catheter, when a stable heart rate (HR) was achieved, the baseline ECG and arterial pressure (AP) were recorded for 5 min. Ach (0.05 μg/g) was then administered intravenously (i.v.), and the ECG and AP recording were repeated. A recovery period of 15 min was allowed for the HR and AP to return to baseline before administering the next drug. Baseline HR slowing was examined in response to phenylephrine (0.2 μg i.v.).
Electrocardiogram (ECG) wires, a jugular vein catheter for drug infusion, and a femoral artery catheter for arterial pressure monitoring were implanted under anesthesia. Measurements of left ventricular ejection fraction (LVEF) were taken using echocardiography under anesthesia with 2.5% tribromomethanol (0.010-0.015 ml/g body wt) injected intraperitoneally (i.p.). Intravenous (i.v.) infusion of ISO (0.04 μg/kg/min i.v. for 5 min) was performed using an infusion pump. To examine the responses to a muscarinic agonist, acetylcholine (ACh) (25 mg/kg i.p.) was co-administered i.p. during the i.v. infusion of ISO (0.04 μg/kg/min). In addition, in conscious mice ACh (0.01 and 0.05 mg/kg), atropine (0.25, 1 and 2 mg/kg), or verapamil (0.75 mg/kg) were administered i.v., and the ECG was recorded. A recovery period of 15 min was allowed for the HR to return to baseline before administering the next drug. To examine HR responses to baroreflex hypertension, phenylephrine (0.2 mg/kg i.v.) was infused, and the ECG and arterial pressure were measured.

[8] = tested on: AC; assay: AC activity in heart membranes from WT and AC5KO mice; format: biochemical, mouse
Method: Protein concentration was measured by the method of Bradford using bovine serum albumin as a standard. AC activity was measured as described previously. AC activity was linear within the incubation time up to 30 min. In order to harvest hearts for tissue cAMP content measurements, mice were allowed to acclimate to the surroundings in the laboratory for an hour before sacrifice. Freshly isolated hearts were briefly immersed in liquid nitrogen. The tissue was homogenized in ice-cold 6% percholic acid, and cAMP was extracted as described before. The concentration of cAMP was determined with an RIA kit (PerkinElmer Life Sciences, Boston, Mass., USA).
cAMP production in membranes from the hearts of AC5KO and WT at 6 months of age was examined. The steady state AC activity was determined as the maximal capacity of cAMP production in the presence of ISO (100 μM ISO+100 μM GTP), GTPγS (100 μM) or forskolin (100 μM). […] Basal cardiac function was not decreased, but the response to ISO and muscarinic inhibition of ISO were attenuated.
Protein concentration was measured by the Bradford method using bovine serum albumin as a standard. AC activity was measured as described previously. AC activity was linear within the incubation time up to 30 min. For the study of Ca^2+ inhibition, the membranes were treated first with EGTA to extract the endogenous Ca^2+ prior to the assay. Free Ca^2+ concentrations were obtained with the use of 200 μmol/L EGTA buffers as described previously. The experiments with Ca^2+ inhibition were conducted in the presence of 100 μmol/L isoproterenol (ISO) plus 100 μmol/L GTP.
cAMP production in membranes from the hearts of AC5KO and WT mice at the age of 6 months were examined. The steady state AC activity in the membrane preparation was determined as the maximal capacity of cAMP production in the presence of ISO ([…], ISO+100 μmol/L GTP), guanosine-5′-O-(3-triophosphate) GTP[…]S (100 μmol/L), or forskolin (100 μmol/L). AC activity was decreased in AC5KO relative to that of WT by 35+/−4% (basal), 27+/−5% (ISO), 27+/−2% (GTPγS), and 40+/−5% (forskolin).

Sequence of type 5 AC (O95622 whole entry): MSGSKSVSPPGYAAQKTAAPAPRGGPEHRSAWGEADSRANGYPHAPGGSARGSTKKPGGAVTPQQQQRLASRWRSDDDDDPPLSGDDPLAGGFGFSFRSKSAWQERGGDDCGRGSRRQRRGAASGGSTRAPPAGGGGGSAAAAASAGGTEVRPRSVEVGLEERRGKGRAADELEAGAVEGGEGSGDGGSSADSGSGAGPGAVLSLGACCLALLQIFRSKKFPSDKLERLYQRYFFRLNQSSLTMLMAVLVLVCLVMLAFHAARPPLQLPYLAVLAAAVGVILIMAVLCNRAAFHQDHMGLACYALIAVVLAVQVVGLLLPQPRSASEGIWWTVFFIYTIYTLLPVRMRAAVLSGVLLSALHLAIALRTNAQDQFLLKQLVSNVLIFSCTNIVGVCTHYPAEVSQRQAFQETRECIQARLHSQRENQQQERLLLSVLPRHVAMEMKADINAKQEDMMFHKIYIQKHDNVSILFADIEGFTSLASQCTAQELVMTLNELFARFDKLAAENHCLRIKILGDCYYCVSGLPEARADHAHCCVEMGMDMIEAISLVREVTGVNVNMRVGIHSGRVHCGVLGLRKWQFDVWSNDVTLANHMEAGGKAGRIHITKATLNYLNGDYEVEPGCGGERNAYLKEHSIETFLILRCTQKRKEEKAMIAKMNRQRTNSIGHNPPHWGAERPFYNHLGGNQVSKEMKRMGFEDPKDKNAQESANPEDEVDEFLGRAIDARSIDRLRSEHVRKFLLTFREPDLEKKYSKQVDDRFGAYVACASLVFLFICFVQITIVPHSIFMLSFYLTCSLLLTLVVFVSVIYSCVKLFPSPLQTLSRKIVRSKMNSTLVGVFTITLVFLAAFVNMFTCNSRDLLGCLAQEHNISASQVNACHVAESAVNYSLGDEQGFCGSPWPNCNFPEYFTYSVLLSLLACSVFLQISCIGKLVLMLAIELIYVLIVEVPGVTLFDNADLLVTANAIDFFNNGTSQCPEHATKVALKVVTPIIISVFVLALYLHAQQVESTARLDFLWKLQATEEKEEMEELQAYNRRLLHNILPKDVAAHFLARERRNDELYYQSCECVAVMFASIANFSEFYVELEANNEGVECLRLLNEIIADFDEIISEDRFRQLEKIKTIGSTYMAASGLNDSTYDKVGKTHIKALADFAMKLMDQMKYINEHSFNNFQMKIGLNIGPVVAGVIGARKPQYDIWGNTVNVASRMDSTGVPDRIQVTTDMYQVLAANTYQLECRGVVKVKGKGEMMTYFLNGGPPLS

`CC(Cn1cnc2c(N)ncnc21)OCP(=O)(O)OP(=O)(O)OP(=O)(O)O` (stereo in doubt) [PMPA-PP, Tenofovir diphosphate] was tested, and the “inhibition of cAMP accumulation in H9C2 cells” value (“inhibition of cAMP accumulation” below) [1] was “little inhibition”.

In the case of `Nc1nc(F)nc2c1ncn2[C@@H]1O[C@H](CO)[C@@H](O)[C@H]1O` [2-fluoroadenosine, 2-Fluoroadenosine], the “inhibition of cAMP accumulation” value [1] is reported as “moderately inhibited” and the “mode of inhibition with respect to ATP” value [2] is reported as “non-competitive”.

For `C[C@H]1O[C@@H](n2cnc3c(N)ncnc32)C[C@@H]1O` [2′5′-dd-Ado, 2′5′-dideoxyadenosine], the “Selectivity ratio for AC5, AC5/AC2” value ([3]; ratio of IC50 for AC5 to that for AC2) was 0.00067, the “Selectivity ratio for AC5, AC5/AC3” value ([3]; ratio of IC50 for AC5 to that for AC3) was 0.0063 and the “inhibition of cAMP accumulation” value [1] was “greatest inhibition”. For the same compound, the “ISO-induced apoptosis in cultured cardiac myocytes” value [4] was “abolished”, the “ISO-induced decrease in LVEF (and FS)” value ([5]; ISO 60 mg/kg/d 7 days, Ara-Ade 20 and 100 mg/kg/day, 2′5′ ddAdo 20 mg/kg/day) was “rescued LVEF and FS reduction” and the ISO-induced cardiac fibrosis ([5]; chronic ISO infusion) was “significantly inhibited”. For the same compound, the “ISO-induced myocardial apoptosis in vivo” value ([5]; chronic ISO infusion) was “significantly inhibited”, the “ISO-induced wall thickening (DESP, DPW)” value ([5]; chronic ISO infusion) was “neither Ara-Ade nor 2′5′ ddAdo inhibited” and the “LVW/BW and myocyte cross sectional area” value ([5]; chronic ISO infusion) was “increased”. The “mode of inhibition with respect to ATP” value [2] was “non-competitive”.

Work on `Nc1ncnc2c1ncn2[C@H]1C[C@H](OP(=O)(O)O)[C@@H](CO)O1` [2′-d-3′-AMP] yielded an IC50 [6] of 0.82 µM.

Compound `Nc1ncnc2c1ncn2[C@@H]1O[C@H](CO)[C@@H](OP(=O)(O)O)[C@H]1O` [3′-AMP] has an IC50 ([6]; THFA: in the presence of Gs-α/GTPαS/forskolin) of 14.6 µM.

`CC(=O)OCC[N+](C)(C)C` [ACh, acetylcholine] was tested, and the “decrease in HR in conscious AC5KO” value ([7]; AC5KO) was 1.3%, the “decrease in HR in conscious AC5KO” value ([7]; AC5KO, listed as Ach) was 7.5% and the “decrease in HR in conscious WT” value ([7]; WT) was 15%. For the same compound, the “decrease in HR in conscious WT” value ([7]; WT, listed as Ach) was 22%.

In the case of `C[N+](C)(C)CCOC(N)=O` [Carbachol], the “inhibition of ISO-stimulated AC activity in AC5KO” value ([8]; 10 μM, AC5KO heart membranes) is reported as “did not inhibit; also recorded: hardly detectable” and the “decrease of ISO-stimulated AC activity in WT” value ([8]; 10 μM, WT heart membranes) is reported as 21+/−3.4% and 21+/−3%.

For `Nc1ncnc2c([C@@H]3O[C@H](CO)[C@@H](O)[C@H]3O)n[nH]c12` [FMA, 7-Amino-3-(β-D-ribofuranosyl)-1H-pyrazolo[4,3-d]pyrimidine], the “inhibition of cAMP accumulation” value [1] was “moderately inhibited”.

For `CC(C)NCC(O)c1ccc(O)c(O)c1` (centres unmarked) [ISO, isoproterenol], the “increase in AC activity in AC5KO” value ([8]; 100 μmol/L ISO + 100 μmol/L GTP, AC5KO) was 64+/−4 pmol/15 min/mg and the “increase in AC activity in WT” value ([8]; 100 μmol/L ISO + 100 μmol/L GTP, WT) was 78+/−6 pmol/15 min/mg.

`CNC[C@H](O)c1cccc(O)c1` [Phenylephrine] was tested, and the systolic arterial pressure ([7]; 0.2 μg/g (0.2 mg/kg) i.v., WT and AC5KO) was “increased systolic arterial pressure significantly in both WT and AC5KO; also recorded: increased systolic arterial pressure similarly in both WT and AC5KO”.

With `CN1[C@@H]2CC[C@H]1C[C@@H](OC(=O)C(CO)c1ccccc1)C2` (some centres unmarked) [atropine] the “increase in HR in AC5KO” value ([7]; 1 μg/g i.v., AC5KO) was 19+/−7.5 beats/min and the “increase in HR in WT” value ([7]; 1 μg/g i.v., WT) was 102+/−22.2 beats/min.

`Nc1nc(Cl)nc2c1ncn2[C@H]1C[C@H](O)[C@@H](CO)O1` [cladribine, 2-chloro-2′-deoxyadenosine] was tested, and the “inhibition of cAMP accumulation” value [1] was “slight inhibition”.

With `COc1ccc(CCN(C)CCCC(C#N)(c2ccc(OC)c(OC)c2)C(C)C)cc1OC` (centres unmarked) [verapamil] the “change in HR in AC5KO” value ([7]; 0.75 mg/kg i.v., AC5KO) was −33+/−10 beats/min and the “change in HR in WT” value ([7]; 0.75 mg/kg i.v., WT) was −36+/−10 beats/min.

`Cc1cn([C@H]2C[C@H](N=[N+]=[N-])[C@@H](COP(=O)(O)OP(=O)(O)OP(=O)(O)O)O2)c(=O)[nH]c1=O` [zidovudine-TP, zidovudine triphosphate] was tested, and the “inhibition of cAMP accumulation” value [1] was “little inhibition” and the “mode of inhibition with respect to ATP” value [2] was “competitive”.

Reference: patent US8871735B2, “Methods and compositions for providing cardiac protection” (University of Medicine and Dentistry of New Jersey, priority 2008, dated 2014)
